Source: ChEMBL document CHEMBL4613328, “Dual Targeting of Norepinephrine Transporter (NET) Function and Thyrointegrin αvβ3 Receptors in the Treatment of Neuroblastoma” (J Med Chem, 2020)
Calls of active or inactive are those of the source. The rule behind the calls is not given here.

Legend:
SK-N-FI [1] = assay: Antitumor activity against human SK-N-FI cells xenografted in Ncr nude mouse assessed as inhibition of tumor growth by measuring suppression of tumor weight at 3 mg/kg, sc dosed daily for 15 days relative to control; format: functional; conditions: for inhibition in vivo at 3 mg/kg: 360 h, read-out: TGI
[2] = Drug uptake in human SK-N-FI cells using Cy7-labeled compound incubated for 4 hrs by confocal microscopy; format: ADME, cell-based
Integrin alpha-V/beta-3 [3] = biological target: T1, Integrin alpha-V/beta-3 (Homo sapiens, UniProt P05106+P06756); assay: Binding affinity to purified integrin alphaVbeta3 receptor (unknown origin) incubated for 2 hrs; format: protein-complex assay
Target sequence in this assay (P05106 27-788 limits assumed): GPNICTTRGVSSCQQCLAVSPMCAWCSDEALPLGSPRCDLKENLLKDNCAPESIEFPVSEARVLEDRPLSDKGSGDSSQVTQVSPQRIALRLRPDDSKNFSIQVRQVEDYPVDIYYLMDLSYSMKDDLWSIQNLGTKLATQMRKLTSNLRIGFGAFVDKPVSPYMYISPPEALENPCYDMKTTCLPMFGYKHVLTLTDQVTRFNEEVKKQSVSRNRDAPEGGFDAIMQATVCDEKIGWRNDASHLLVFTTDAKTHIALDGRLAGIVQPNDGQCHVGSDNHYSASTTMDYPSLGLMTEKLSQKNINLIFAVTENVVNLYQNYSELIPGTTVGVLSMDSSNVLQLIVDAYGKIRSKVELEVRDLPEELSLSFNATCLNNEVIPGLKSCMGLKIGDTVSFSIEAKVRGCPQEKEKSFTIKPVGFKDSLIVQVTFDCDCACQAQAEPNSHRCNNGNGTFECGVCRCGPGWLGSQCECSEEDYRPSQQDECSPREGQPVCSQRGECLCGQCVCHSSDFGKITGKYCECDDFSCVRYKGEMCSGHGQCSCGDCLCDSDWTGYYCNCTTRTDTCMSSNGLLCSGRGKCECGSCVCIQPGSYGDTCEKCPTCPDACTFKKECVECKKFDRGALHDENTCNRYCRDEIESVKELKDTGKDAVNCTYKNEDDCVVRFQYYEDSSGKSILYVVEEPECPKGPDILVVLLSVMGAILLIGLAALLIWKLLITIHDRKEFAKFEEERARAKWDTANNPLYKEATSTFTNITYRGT
Target sequence in this assay (P06756 31-889 limits assumed): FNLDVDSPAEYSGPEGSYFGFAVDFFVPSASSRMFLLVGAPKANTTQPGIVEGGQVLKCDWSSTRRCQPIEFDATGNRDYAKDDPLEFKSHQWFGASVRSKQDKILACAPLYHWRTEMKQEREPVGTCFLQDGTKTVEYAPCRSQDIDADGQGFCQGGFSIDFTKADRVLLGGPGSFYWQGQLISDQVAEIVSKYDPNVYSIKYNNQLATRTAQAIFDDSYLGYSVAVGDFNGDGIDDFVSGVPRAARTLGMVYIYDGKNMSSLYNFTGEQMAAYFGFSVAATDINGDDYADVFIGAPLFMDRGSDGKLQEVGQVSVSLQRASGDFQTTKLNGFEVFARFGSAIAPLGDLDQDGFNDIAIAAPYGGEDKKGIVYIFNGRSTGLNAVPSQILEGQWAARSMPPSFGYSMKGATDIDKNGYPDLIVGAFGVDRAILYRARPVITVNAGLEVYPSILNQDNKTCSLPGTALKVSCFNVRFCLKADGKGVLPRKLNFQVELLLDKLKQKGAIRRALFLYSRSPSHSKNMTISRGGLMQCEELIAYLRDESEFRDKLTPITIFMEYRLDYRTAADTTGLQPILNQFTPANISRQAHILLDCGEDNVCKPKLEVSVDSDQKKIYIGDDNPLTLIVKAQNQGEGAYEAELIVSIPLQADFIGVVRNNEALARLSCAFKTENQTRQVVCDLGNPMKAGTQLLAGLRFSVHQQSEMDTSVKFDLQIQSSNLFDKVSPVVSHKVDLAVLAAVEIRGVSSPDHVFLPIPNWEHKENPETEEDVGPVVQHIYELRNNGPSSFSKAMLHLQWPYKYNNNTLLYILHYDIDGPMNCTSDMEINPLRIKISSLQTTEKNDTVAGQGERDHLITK
Target sequence in this assay (P06756 891-1048 limits assumed): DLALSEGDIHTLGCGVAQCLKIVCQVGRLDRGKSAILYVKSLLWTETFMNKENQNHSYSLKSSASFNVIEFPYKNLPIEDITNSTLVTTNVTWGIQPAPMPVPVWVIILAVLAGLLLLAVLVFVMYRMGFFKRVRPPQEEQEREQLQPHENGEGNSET

[4] = Drug uptake in nucleus of human SK-N-FI cells using Cy7-labeled compound incubated for 4 hrs by confocal microscopy; format: ADME, subcellular
Integrin alpha-V/beta-3 [5] = biological target: T1, Integrin alpha-V/beta-3; assay: Binding affinity to […] integrin alphaVbeta3 in human SK-N-FI cells using Cy7-labeled compound incubated for 4 hrs by confocal microscopy; format: cell-based
SK-N-FI [6] = assay: Inhibition of cell proliferation of human SK-N-FI cells at 30 to 100 uM incubated for 24 hrs relative to control; format: functional
SK-N-FI [7] = assay: Inhibition of cell proliferation of human SK-N-FI cells at 30 to 100 uM incubated for 48 hrs relative to control; format: functional
SK-N-FI [8] = assay: Antitumor activity against human SK-N-FI cells xenografted in Ncr nude mouse assessed as inhibition of tumor growth at 1 to 10 mg/kg, sc dosed daily up to 15 days relative to control; format: functional
SK-N-FI [9] = assay: Antitumor activity against human SK-N-FI cells xenografted in Ncr nude mouse assessed as inhibition of neuroblastoma tumor cell viability at 1 to 10 mg/kg, sc dosed daily for 15 days relative to control; format: functional
SK-N-FI [10] = assay: Antitumor activity against human SK-N-FI cells xenografted in Ncr nude mouse assessed as increase in neuroblastoma tumor apoptosis and necrosis at 1 to 10 mg/kg, sc dosed daily for 15 days relative to control; format: functional

Row | Compound | TGI (SK-N-FI [1]) | Drug uptake [2] [%] | IC50 (Integrin alpha-V/beta-3 [3]) [µM] | Drug uptake [4] | inhibition in vivo at 3 mg/kg (SK-N-FI [1]) [%] | Activity (Integrin alpha-V/beta-3 [5]) | inhibition (INH) (SK-N-FI [6]) [%] | inhibition (INH) (SK-N-FI [7]) | TGI (SK-N-FI [8]) | inhibition (INH) (SK-N-FI [9]) | Activity (SK-N-FI [10])
1 | N=C(N)NCc1ccccc1 | inactive | 90 to 100 | – | – | – | – | – | – | – | – | –
2 | O=C(O)Cc1cc(I)c(Oc2cc(I)c(O)c(I)c2)c(I)c1 [TETRAC] | – | – | 0.0624 | Active | 40 to 50 | – | – | – | – | – | –
3 | N=C(N)NCc1ccc(OCCOCCOCCOCCOCCOCCOCCn2cc(COc3c(I)cc(Oc4c(I)cc(CC(=O)O)cc4I)cc3I)nn2)cc1 | – | – | – | Not Active | 80 to 100 | Active | 30 | 50 - 60% | 80 - 100% | 80 - 100% | 80 - 100%
